Assay results from the NIST ThermoML archive (doi:10.1021/je900414p).
± gives the expanded uncertainty stated by the source.

Conditions: Liquid

CCO [ethanol]
mass density [kg/m3]
Conditions	100 kPa	2500 kPa	5000 kPa	10000 kPa	15000 kPa	20000 kPa	25000 kPa	30000 kPa	35000 kPa
283.15 K	797.76 ± 0.45	799.74 ± 0.46	801.73 ± 0.48	805.58 ± 0.52	809.28 ± 0.56	812.8 ± 0.6	816.2 ± 0.7	819.47 ± 0.7	822.63 ± 0.74
288.15 K	793.65 ± 0.45	795.66 ± 0.47	797.73 ± 0.48	801.67 ± 0.52	805.43 ± 0.57	809.06 ± 0.61	812.52 ± 0.66	815.87 ± 0.7	819.04 ± 0.75
293.15 K	789.19 ± 0.45	791.25 ± 0.47	793.37 ± 0.49	797.42 ± 0.53	801.3 ± 0.6	804.99 ± 0.62	808.53 ± 0.67	811.94 ± 0.71	815.23 ± 0.76
298.15 K	784.92 ± 0.45	787.03 ± 0.47	789.21 ± 0.49	793.38 ± 0.53	797.34 ± 0.58	801.11 ± 0.62	804.75 ± 0.67	808.21 ± 0.72	811.58 ± 0.77
303.15 K	780.63 ± 0.45	782.81 ± 0.47	785.04 ± 0.49	789.3 ± 0.5	793.37 ± 0.58	797.25 ± 0.63	800.93 ± 0.68	804.49 ± 0.73	807.95 ± 0.78
308.15 K	776.26 ± 0.46	778.54 ± 0.47	780.82 ± 0.49	785.22 ± 0.54	789.37 ± 0.59	793.34 ± 0.64	797.14 ± 0.69	800.76 ± 0.74	804.27 ± 0.79
313.15 K	771.91 ± 0.46	774.26 ± 0.48	776.62 ± 0.5	781.13 ± 0.54	785.4 ± 0.6	789.45 ± 0.64	793.33 ± 0.7	797.04 ± 0.75	800.61 ± 0.8
318.15 K	767.58 ± 0.46	769.99 ± 0.48	772.41 ± 0.5	777.04 ± 0.55	781.43 ± 0.6	785.59 ± 0.65	789.55 ± 0.7	793.36 ± 0.76	796.98 ± 0.81
323.15 K	763.09 ± 0.46	765.56 ± 0.48	768.08 ± 0.5	772.84 ± 0.55	777.34 ± 0.6	781.59 ± 0.66	785.65 ± 0.71	789.53 ± 0.77	793.24 ± 0.82
328.15 K	758.54 ± 0.46	761.09 ± 0.48	763.7 ± 0.5	768.58 ± 0.56	773.22 ± 0.61	777.57 ± 0.66	781.73 ± 0.72	785.7 ± 0.8	789.5 ± 0.8
333.15 K	753.96 ± 0.46	756.61 ± 0.48	759.27 ± 0.51	764.32 ± 0.56	769.08 ± 0.61	773.56 ± 0.67	777.81 ± 0.73	781.87 ± 0.78	785.76 ± 0.84
338.15 K	749.42 ± 0.47	752.16 ± 0.49	754.89 ± 0.51	760.09 ± 0.56	764.99 ± 0.62	769.59 ± 0.68	773.96 ± 0.74	778.09 ± 0.79	782.06 ± 0.85
343.15 K	744.74 ± 0.47	747.57 ± 0.49	750.39 ± 0.51	755.74 ± 0.57	760.75 ± 0.63	765.47 ± 0.68	769.94 ± 0.74	774.17 ± 0.8	778.23 ± 0.86

CCOS(=O)(=O)[O-].CCn1cc[n+](C)c1 [1-ethyl-3-methylimidazolium ethyl sulfate]
mass density [kg/m3]
Conditions	100 kPa	2500 kPa	5000 kPa	10000 kPa	15000 kPa	20000 kPa	25000 kPa	30000 kPa	35000 kPa
283.15 K	1247.6 ± 1.1	1248.59 ± 1.2	1249.58 ± 1.4	1251.56 ± 1.8	1253.65 ± 2.2	1255.44 ± 2.6	1257.31 ± 3.1	1259.18 ± 3.5	1261.04 ± 3.9
288.15 K	1244.17 ± 1	1245.15 ± 1.2	1246.17 ± 1.4	1248.17 ± 1.8	1250.14 ± 2.2	1252.1 ± 2.6	1254.03 ± 3	1255.9 ± 3.5	1257.77 ± 3.9
293.15 K	1240.67 ± 1	1241.7 ± 1.2	1242.72 ± 1.4	1244.75 ± 1.8	1246.75 ± 2.2	1248.72 ± 2.6	1250.66 ± 3	1252.56 ± 3.4	1254.46 ± 3.8
298.15 K	1237.33 ± 1	1238.32 ± 1.2	1239.36 ± 1.4	1241.41 ± 1.8	1243.42 ± 2.2	1245.42 ± 2.6	1247.38 ± 3	1249.31 ± 3.4	1251.22 ± 3.8
303.15 K	1233.95 ± 1	1234.96 ± 1.2	1236.02 ± 1.4	1238.1 ± 1.8	1240.14 ± 2.1	1242.15 ± 2.5	1244.14 ± 2.9	1246.11 ± 3.3	1248.06 ± 3.7
308.15 K	1230.49 ± 1	1231.54 ± 1.2	1232.6 ± 1.4	1234.71 ± 1.7	1236.78 ± 2.1	1238.83 ± 2.5	1240.83 ± 2.9	1242.81 ± 3.3	1244.76 ± 3.7
313.15 K	1227.14 ± 0.99	1228.21 ± 1.2	1229.29 ± 1.3	1231.41 ± 1.7	1233.51 ± 2.1	1235.57 ± 2.5	1237.6 ± 2.9	1239.6 ± 3.2	1241.57 ± 3.6
318.15 K	1223.86 ± 0.98	1224.94 ± 1.1	1226.03 ± 1.3	1228.17 ± 1.7	1230.31 ± 2.1	1232.4 ± 2.4	1234.44 ± 2.8	1236.49 ± 3.2	1238.47 ± 3.6
323.15 K	1220.46 ± 0.97	1221.54 ± 1.1	1222.66 ± 1.3	1224.85 ± 1.7	1226.99 ± 2	1229.11 ± 2.4	1231.18 ± 2.8	1233.23 ± 3.2	1235.25 ± 3.5
328.15 K	1217.07 ± 0.96	1218.15 ± 1.1	1219.31 ± 1.3	1221.5 ± 1.6	1223.69 ± 2	1225.81 ± 2.4	1227.93 ± 2.8	1229.99 ± 3.1	1232.04 ± 3.5
333.15 K	1213.67 ± 0.95	1214.63 ± 1.1	1215.87 ± 1.3	1218.14 ± 1.6	1220.35 ± 2	1222.53 ± 2.3	1224.65 ± 2.7	1226.74 ± 3.1	1228.8 ± 3.5
338.15 K	1210.4 ± 0.94	1211.52 ± 1.1	1212.68 ± 1.3	1214.94 ± 1.6	1217.17 ± 2	1219.36 ± 2.3	1221.51 ± 2.7	1223.61 ± 3	1225.71 ± 3.4
